One data set concerns MCF-7. The experiment in a line: WST-1 / MTT cell proliferation assay, MCF-7 (single agents and combinations). It counts as cell-based, human. Particulars: for IC50: Homo sapiens.
The target of a further data set is MDM2 (In-house, 41 kD) (UniProt Q00987). In words: competitive fluorescence polarization, displacement of FAM-labeled linear peptide from MDM2; grade decoded by the scale of Table 4. Background: In fluorescence polarisation assays a small probe gives low polarisation when free and higher when bound to something large.
Sequence of MDM2 (In-house, 41 kD) (Q00987 1-125 limits assumed): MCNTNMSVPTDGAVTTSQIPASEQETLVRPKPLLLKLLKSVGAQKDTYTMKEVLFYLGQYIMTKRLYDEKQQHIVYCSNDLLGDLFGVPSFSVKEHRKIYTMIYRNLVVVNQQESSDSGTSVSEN
A further data set has as its target T1, MDMX (In-house, 40 kD) (UniProt O15151).
T1 sequence (looked up): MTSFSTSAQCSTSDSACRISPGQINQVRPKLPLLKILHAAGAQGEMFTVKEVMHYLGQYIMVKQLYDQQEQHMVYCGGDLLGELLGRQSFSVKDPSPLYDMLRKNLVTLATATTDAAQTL
In words: competitive fluorescence polarization, displacement of FAM-labeled linear peptide from MDMX; grade decoded by the scale of Table 4.

The test system of a further data set is MV4-11. The experiment in a line: WST-1 / MTT cell viability, MV4-11. Particulars: MV4-11, sequential treatment, 72 hrs. (In general: Tetrazolium assays rely on reduction of a dye to a coloured formazan, in cell work by metabolically active cells.)
Another data set concerns AML cell lines. The experiment in a line: Cellular proliferation in AML cells treated with Ara-C. Type of data set: cell-based. Conditions: Ara-C alone.
Another data set is described as follows: FIGURE 19. An excerpt: Table printed on a drawing sheet, FIGURE 19
First reader's note: The table is an inset in a plot of solubility against the number of amino acids C-terminal to the cross-link.

The test system of data set [1] is MCF-7 breast cancer xenograft. The experiment in a line: MCF-7 breast cancer xenograft study, tumor growth inhibition. Particulars: 30 mg/kg three times per week iv.
Description: This formulation was prepared once for the duration of the study.
Each group was assigned to a different treatment regimen.
During the dosing period the mice were weighed and tumors measured 1-2 times per week.
The subject of a further data set is SJSA-1. The experiment in a line: Cell viability assay (MTT), SJSA-1.
Data set [2] can be described thus: MCF-7 breast cancer xenograft study, body weight and deaths. Type of data set: in vivo, mice. Conditions: for % BW Change / No. with ≥10% BW Loss / No. with ≥20% BW Loss or death: Days 18-39. An excerpt: A negative control stapled peptide.
In another data set the test system is DOHH-2. The experiment in a line: WST-1 / MTT cell viability, DOHH-2. It counts as cell-based, human. Particulars: for IC50: Homo sapiens, DOHH-2, 72 h.
Setting [3] is: 30 mg/kg three times per week iv.
The mark [4] stands for this setting: DOHH-2, sequential treatment, 72 hrs.

Converted amounts (≈) assume the structure as drawn. “And” between values parts separate entries of the source, which are not always exact repeats. Identical values can stand only once. Ends that are not written are not given here.

The values below come from US20200369728A1, “PEPTIDOMIMETIC MACROCYCLES AND USES THEREOF” (Aileron Therapeutics, Inc., priority 2015, published 2020).

Description for DOHH-2: Initially, various DOHH-2 cell numbers were plated and evaluated 3-7 days later to determine the optimal number of cells to be plated and treatment duration.
(§1) A drug combination index plot was used to assess the synergistic, additive, or antagonistic properties of each combination treatment. […] Combination index (CI) values were calculated using the CompuSyn software. The data were expressed as log(CI).
The anticancer activity of the combination treatment was assessed based on the order of addition of the drugs.
Description for MV4-11: Initially, various MV4-11 cell numbers were plated and evaluated 3-7 days later to determine the optimal number of cells to be plated and treatment duration.
Cells were evaluated for viability by WST-1 assay or MTT assay 3-7 days after beginning treatment.
as §1

One may read the IC50 as the concentration that inhibits the measured activity by half. On to `C[C@]12CC[C@@H]3c4ccc(O)cc4C[C@@H](CCCCCCCCC[S+]([O-])CCCC(F)(F)C(F)(F)F)[C@H]3[C@@H]1CC[C@@H]2O` (some centres unmarked) [fulvestrant, reference compound], for which the IC50 with MCF-7 (MCF7, FUL + 0.4 μM Aileron peptide 1, MCF-7) was determined as 0.000261 µM; in the data set with MCF-7 (MCF7, FUL alone, MCF-7) it was 0.000768 µM. Moreover, the “effect on MCF-7 cell proliferation” value with MCF-7 (single agent, 5 days) was “inhibited MCF-7 breast cancer cell proliferation with limited cell killing as a single agent”.

Turning to “SP752, Ac-t$r5wya$r5f4CF3ekllr-NH2 (peptide)”, the IC50 with MDM2 (In-house, 41 kD) was > 0.1 µM and < 1 µM; with MDMX (In-house, 40 kD), over 1 µM.

With `Nc1ccn([C@@H]2O[C@H](CO)[C@@H](O)[C@@H]2O)c(=O)n1` [Ara-C, cytarabine, reference compound], the “order of addition: effect on cell growth, AP1 and Ara-C” value in the data set with MV4-11 is recorded as “suppressed MV4-11 cell growth with or without AP1”. Besides, in the data set on AML cell lines, the “proliferation of AML cell lines” value is listed as “inhibits proliferation of AML cell lines”.

As usually defined, the Solubility is how much of the substance goes into solution per volume. Take `CC(=O)N[C@@H](CC(C)C)C(=O)N[C@H](C(=O)N[C@@H](Cc1ccccc1)C(=O)N[C@]1(C)CCCCCCC=CCCC[C@@](C)(C(=O)N[C@@H](C)C(=O)N[C@@H](C)C(=O)N[C@@H](C)C(=O)N[C@@H](C)C(=O)N[C@@H](C)C(=O)N[C@@H](C)C(=O)N[C@H](C)C(N)=O)NC(=O)[C@H](CC(C)C)NC(=O)[C@H](CCC(N)=O)NC(=O)[C@H](C)NC(=O)[C@H](Cc2c[nH]c3ccccc23)NC(=O)[C@H](Cc2ccc(O)cc2)NC(=O)[C@H](C)NC1=O)[C@@H](C)O` [SP316]: in the data set “FIGURE 19”, the “Solubility” value worked out at 5000 µg/mL (≈ 2570 µM).

Take `Nc1ncn([C@@H]2O[C@H](CO)[C@@H](O)[C@H]2O)c(=O)n1` [azacitidine, reference compound]: the “order of addition: effect on cell growth, AP1 and azacitidine” value in the data set on MV4-11 is “suppressed MV4-11 cell growth with or without AP1”.

For the molecule “SP757, Ac-tawy$s8nf4CF3ekll$r5a-NH2 (peptide)”, the IC50 with MDM2 (In-house, 41 kD) is under 0.01 µM; with MDMX (In-house, 40 kD) it was over 1 µM.

As to `CC(=O)N[C@@H](CC(C)C)C(=O)N[C@H](C(=O)N[C@@H](C)C(=O)N[C@]1(C)CCCCCCC=CCCC[C@@](C)(C(=O)N[C@@H](CO)C(=O)N[C@@H](C)C(=O)N[C@@H](C)C(N)=O)NC(=O)[C@H](CC2CCC2)NC(=O)[C@H](CCC(N)=O)NC(=O)[C@H](C)NC(=O)[C@H](Cc2c[nH]c3ccccc23)NC(=O)[C@H](Cc2ccc(O)cc2)NC(=O)[C@H](CCC(=O)O)NC1=O)[C@@H](C)O` [SP252], in data set [1], the “TGI by Day 32” value is reported as 88%. In addition, the “activity in the SJSA-1 in vitro viability assay” value in the data set with SJSA-1 is on record as “no activity”. Also, in [2] (30 mg/kg 3x/wk iv), the “% BW Change” value was “+3.3%”, the “No. with ≥10% BW Loss” value is 0/10 and the “No. with ≥20% BW Loss or death” value is on record as 0/10. For the same molecule, the “tolerability of dosing regimen” value in [2] (setting [3]) is on record as “well-tolerated with no body weight loss or deaths noted”.

For the molecule `O=P1(N(CCCl)CCCl)NCCCO1` (centres unmarked) [CTX, cyclophosphamide, reference compound], the “order of addition: effect on cell growth, AP1 and CTX” value with DOHH-2 (setting [4]) is reported as “suppressed DOHH-2 cell growth with or without AP1”. Further, the IC50 in the data set with DOHH-2 (CTX + 0.07 μM AP1, DOHH-2, 72 hours) was 411 µM; in the data set with DOHH-2 (CTX + 0.2 μM AP1, DOHH-2, 72 hours) it was 172 µM; in the data set on DOHH-2 (CTX + 0.6 μM AP1, DOHH-2, 72 hours), 258 µM; in the data set with DOHH-2 (CTX alone) it was 1980 µM.

For “SP154 (LTFAEYWAQAASAA; not fully specified)”, in data set [2] (30 mg/kg 3x/wk iv), the “% BW Change” value is “+5.7%”, the “No. with ≥10% BW Loss” value is 0/10 and the “No. with ≥20% BW Loss or death” value was 0/10. Further, the “tolerability of dosing regimen” value in data set [2] (setting [3]) was “well-tolerated”. Moreover, in [2] (40 mg/kg 2x/wk iv), the “No. with ≥10% BW Loss” value is 0/10 and the “No. with ≥20% BW Loss or death” value is 2/10 (2 deaths). Besides, the “tolerability of dosing regimen” value in [2] (40 mg/kg twice a week iv) was “not tolerable”. Also, the “mice died during treatment” value in data set [2] (40 mg/kg twice a week iv, 10 mice per group) is 2.

Turning to `CC[C@]1(O)C[C@H]2CN(CCc3c([nH]c4ccccc34)[C@@](C(=O)OC)(c3cc4c(cc3OC)N(C=O)[C@H]3[C@@](O)(C(=O)OC)[C@H](OC(C)=O)[C@]5(CC)C=CCN6CC[C@]43[C@@H]65)C2)C1` [VCR, vincristine, reference compound], the “order of addition: effect on cell growth, AP1 and VCR” value with DOHH-2 (setting [4]) was “suppressed DOHH-2 cell growth with or without AP1”.

Consider “SP754, Ac-tawya$r5f4CF3ek$r5lr-NH2 (peptide)”, for which the IC50 with MDM2 (In-house, 41 kD) was > 0.1 µM and < 1 µM; with MDMX (In-house, 40 kD), over 1 µM.

Take “SP756, Ac-t$s8wyanf4CF3e$r5llr-NH2 (peptide)”: the half-maximal inhibitory concentration (IC50) in the data set with MDM2 (In-house, 41 kD) is > 0.01 µM and < 0.1 µM; with MDMX (In-house, 40 kD) it was over 1 µM.
